The test system of the test is ammonia lateralization threshold. The test can be described thus: Panel evaluation of the lateralization threshold (LT) of ammonia alone and in combination with a PRM. Also on record: LT of ammonia Panellist 1 Cond II / LT of ammonia Panellist 2 Cond II / LT of ammonia Panellist 3 Cond II: unit not given here. In kind it is in vivo, panellists. The note with it: for LT of ammonia Panellist 1 Cond II / LT of ammonia Panellist 2 Cond II / LT of ammonia Panellist 3 Cond II / LT of ammonia Panellist 1 %Δ / LT of ammonia Panellist 2 %Δ / LT of ammonia Panellist 3 %Δ: Table 4; for LT of ammonia Panellist 1 Cond II / LT of ammonia Panellist 2 Cond II / LT of ammonia Panellist 3 Cond II: ammonia stimulus combined with PRM stimulus. As to the method:
An ammonia stimulus test range was prepared. To ensure a stable level of ammonia in each stimulus, the ammonia headspace was stabilized by combining appropriate concentrations of NH4Cl, NaOH and H2O instead of simply adding ammonia directly to a solvent. Different concentrations of ammonia were used to create a stimulus test range by utilizing the appropriate amount of each compound (see Table 1).
A stimulus was also prepared for each PRM which was intended to be combined with ammonia stimuli. As the PRMs differed in their potency and to ensure that each PRM stimulus had approximately the same potency, an abbreviated dose response curve was constructed for each PRM by having four panellists evaluate the intensity of five concentration levels of the PRM dissolved in propylene glycol in duplicate. Assessments were made relative to the reference of 170 ppm allyl heptanoate in propylene glycol, which intensity was set to 0. Based upon the average scores, a rough intensity match was made for each PRM utilizing one of the following criteria. If one of the tested concentration levels averaged at or near zero, this concentration level was selected. If the rating created any sort of reasonable curve, the equation of the curve was determined and solved for 0 to arrive at the PRM assessment level. If multiple concentration levels were equally distant form the match level, then the standard deviation across individuals was considered, as were the individual responses. In general, the PRM level was selected to be on average close to 0 with low variability, with two panellists saying the level was a bit too high and the other two panellists saying the level was a bit too low. The PRMs for which a stimulus was prepared are listed in Table 2 below, together with the concentration of the PRM in the stimulus.
Volunteers were screened for their ability to lateralize ammonia stimuli. For the screening, the experimenter measured the participant's lateralization threshold for ammonia using a two-alternative forced choice modified staircase procedure employing a four-in, two-down, one-up rule with a five reversal criterion, as described below, On each trial volunteers were presented with a pair of glass bottles with clean, custom-made nose pieces. One bottle contained ammonia at a particular level selected from Table 1 and the other bottle contained water only. Each bottle was applied to one nostril using the nose piece. The volunteers were asked to identify which bottle in each pair contained ammonia.
If the ammonia stimulus was correctly identified in four consecutive trials, the concentration was decreased by one level of Table 1 on the next trial. If an incorrect answer was provided, the concentration was increased by one level of Table 1. Location (left or right nostril) of the stimulus was randomized over presentations. Testing continued until one of the following occurred: • 1) Five reversals (correct decision followed by an incorrect decision or vice versa) were achieved; • 2) The volunteer gave a correct response twice in a row at the lowest level of Table 1; or • 3) The volunteer gave an incorrect response at the highest level of Table 1.
In the first circumstance, threshold values were then calculated by averaging the last four reversals. In the second circumstance, the LT was the lowest level. In the third circumstance, the LT could not be calculated. Volunteers were considered qualified to participate in the panel evaluation if their LT could be calculated (Circumstance 1).
The LT of ammonia, both alone and in combination with diverse PRM, was determined. A repeated-measures design was used, such that the LT with and without the addition of a PRM were both measured at the same time in one person by utilizing interwoven stimuli presentations. The LT for each PRM was measured by two to three panellists, the third panellists being included if the results of the first to panellists disagreed. […]

[1] abbreviates: change of ammonia LT, Cond II (with PRM) vs Cond I (ammonia alone).
Setting [2] is: Table 3, ammonia stimulus combined with PRM stimulus (concentration of Table 2 in propylene glycol).
The mark [3] stands for this setting: Table 3, change of ammonia LT, Cond II (with PRM) vs Cond I (ammonia alone).

As for “3-Methyl-(4/5)-cyclopentadecenone [Muscenone ™]”, the “LT of ammonia Panellist 1 Cond II” value was 11.1, the “LT of ammonia Panellist 2 Cond II” value worked out at 11.1 and the “LT of ammonia Panellist 3 Cond II” value is 11.1. Under setting [1], the “LT of ammonia Panellist 1 %Δ” value came out at 454%, the “LT of ammonia Panellist 2 %Δ” value came out at 77% and the “LT of ammonia Panellist 3 %Δ” value was 214%.

For the compound `C=C1CCCC(C)(C)C1C(=O)/C=C/C` (racemic) [Gamma damascone, (+−)-(E)-1-(2,2-dimethyl-6-methylene-1-cyclohexyl)-2-buten-1-one], the “LT of ammonia Panellist 1 Cond II” value is listed as 6.3, the “LT of ammonia Panellist 2 Cond II” value is reported as 19.6 and the “LT of ammonia Panellist 3 Cond II” value worked out at 11.1. Under setting [1], the “LT of ammonia Panellist 1 %Δ” value is listed as 214%, the “LT of ammonia Panellist 2 %Δ” value amounted to 885% and the “LT of ammonia Panellist 3 %Δ” value is on record as 456%.

For the compound `CC1C(=O)O[C@H]2C[C@@H](C)CC[C@H]12` (mixture of isomers) [Koumalactone ®, (3aRS,6SR,7aSR)-perhydro-3,6-dimethyl-benzo[B]furan-2-one], under setting [2], the “Ammonia LT Panellist 1 Cond II” value turned out to be 19.1 ppm and the “Ammonia LT Panellist 2 Cond II” value was 71.9 ppm. In addition, under setting [3], the “Ammonia LT Panellist 1 % Δ” value was 162% and the “Ammonia LT Panellist 2 % Δ” value is given as 214%.

In the case of `CCCCC[C@H]1CCC[C@H]1O` (relative stereo) [Cis-2-pentyl-1-cyclopentanol], the “LT of ammonia Panellist 1 Cond II” value is on record as 2.0, the “LT of ammonia Panellist 2 Cond II” value turned out to be 0.4 and the “LT of ammonia Panellist 3 Cond II” value is listed as 3.5. Under setting [1], the “LT of ammonia Panellist 1 %Δ” value is given as 216%, the “LT of ammonia Panellist 2 %Δ” value is 90% and the “LT of ammonia Panellist 3 %Δ” value was 212%.

As to `C[C@H]1[C@@H]2CC(C[C@@]13C=CC(=O)CC3)C2(C)C` (single isomer, unassigned; (+)), the “LT of ammonia Panellist 1 Cond II” value amounted to 0.4, the “LT of ammonia Panellist 2 Cond II” value was 0.6 and the “LT of ammonia Panellist 3 Cond II” value amounted to 0.6. For the same compound, under setting [1], the “LT of ammonia Panellist 1 %Δ” value came to 75%, the “LT of ammonia Panellist 2 %Δ” value came to 417% and the “LT of ammonia Panellist 3 %Δ” value is 215%.

Turning to `CCC1CC(C)(C)CCC1=O` (stereo not shown) [2-Ethyl-4,4-dimethyl-1-cyclohexanone], the “LT of ammonia Panellist 1 Cond II” value stood at 3.5, the “LT of ammonia Panellist 2 Cond II” value turned out to be 2.0 and the “LT of ammonia Panellist 3 Cond II” value is recorded as 2.0. Moreover, under setting [1], the “LT of ammonia Panellist 1 %Δ” value was found to be 212%, the “LT of ammonia Panellist 2 %Δ” value turned out to be 471% and the “LT of ammonia Panellist 3 %Δ” value is 217%.

As for `C=C(CC(C)CO)C1CC=C(C)C1(C)C` (stereo not shown) [2-Methyl-4-(2,2,3-trimethyl-3-cyclopenten-1-yl)-4-penten-1-ol], the “LT of ammonia Panellist 1 Cond II” value is 3.5, the “LT of ammonia Panellist 2 Cond II” value worked out at 3.5 and the “LT of ammonia Panellist 3 Cond II” value amounted to 2.0. Further, under setting [1], the “LT of ammonia Panellist 1 %Δ” value is 212%, the “LT of ammonia Panellist 2 %Δ” value came to 212% and the “LT of ammonia Panellist 3 %Δ” value amounted to 852%.

For the compound `CC(=O)OCCC1CCCCC1` [2-cyclohexylethyl acetate], the “LT of ammonia Panellist 1 Cond II” value is reported as 2.0, the “LT of ammonia Panellist 2 Cond II” value came out at 1.1 and the “LT of ammonia Panellist 3 Cond II” value was found to be 1.1. Moreover, under setting [1], the “LT of ammonia Panellist 1 %Δ” value came to 848%, the “LT of ammonia Panellist 2 %Δ” value was 465% and the “LT of ammonia Panellist 3 %Δ” value was 842%.

With `CC(C)CCCC(C)CCO` (stereo not shown) [3,7-Dimethyl-1-octanol], the “LT of ammonia Panellist 1 Cond II” value was found to be 6.3, the “LT of ammonia Panellist 2 Cond II” value came out at 3.5 and the “LT of ammonia Panellist 3 Cond II” value came out at 3.5. Under setting [1], the “LT of ammonia Panellist 1 %Δ” value is 214%, the “LT of ammonia Panellist 2 %Δ” value stood at 77% and the “LT of ammonia Panellist 3 %Δ” value is 77%.

As to `CCCCC(CC)CCC(C)O` (stereo not shown) [5-ethyl-2-nonanol], the “LT of ammonia Panellist 1 Cond II” value came out at 19.6, the “LT of ammonia Panellist 2 Cond II” value is given as 6.2 and the “LT of ammonia Panellist 3 Cond II” value was determined as 6.3. Further, under setting [1], the “LT of ammonia Panellist 1 %Δ” value is 885%, the “LT of ammonia Panellist 2 %Δ” value is 452% and the “LT of ammonia Panellist 3 %Δ” value was 214%.

Values taken from patent US20130287721A1, “METHOD FOR COUNTERACTING AMMONIA MALODOR” (Firmenich SA, priority 2010, published 2013).
